Tests used:
Brd4-BD2 L387A,M442C = Brd4-BD2 L387A,M442C (Homo sapiens, UniProt O60885, L387A/M442C)
[1] = target: T1, Brd4-BD2 L387A,E438C (BromoCatch) (Homo sapiens, UniProt O60885, E438C/L387A); assay: biochemical
[2] = target: T2, Brd4-BD2 L387A,E438C (BromoCatch) (Homo sapiens, UniProt O60885, L387A/E438C); assay: intact protein LC-MS covalent adduct; DSF; assay type: binding
T2 construct: Brd4-BD2 (351–459)

[3] = target: T1, Brd4-BD2 L387A,E438C (BromoCatch); assay: competition FP kinetics (kinact/KI); intact protein MS; DSF ΔTm +[…] °C; streptavidin pull-down; assay type: binding; parameters: Brd4-BD2; conditions: read-out: kinact_KI

SMILES | intact protein LC-MS covalent adduct; DSF [2] | also measured
C=CC(=O)Nc1ccc(C2=N[C@@H]([C@@H](CC)C(=O)OC)c3nnc(C)n3-c3sc(C)c(C)c32)cc1 [MR116] |  | intact protein LC-MS covalent adduct; DSF (Brd4-BD2 L387A,M442C): (acrylamide, chloroacetamide, vinyl sulfonamide and epoxide) showed covalent modification of both cysteine-containing mutants; Ki [1]: 6.8 nM
C=CC(=O)Nc1cccc(C2=N[C@@H]([C@@H](CC)C(=O)OC)c3nnc(C)n3-c3sc(C)c(C)c32)c1 [MR119] | Brd4-BD2^L387A,E438C exhibited excellent reactivity towards both meta and para electrophilic ligands | 
C=CC(=O)Nc1ccc(C2=N[C@@H]([C@@H](CC)C(=O)NCCOCCOCCOCCOCCNC(=O)CCCC[C@@H]3SC[C@@H]4NC(=O)N[C@@H]43)c3nnc(C)n3-c3sc(C)c(C)c32)cc1 [MR169] |  | kinact/KI [3]: 37000 M⁻¹ s⁻¹
CC[C@@H](C(=O)OC)[C@@H]1N=C(c2cccc(NC(=O)CCl)c2)c2c(sc(C)c2C)-n2c(C)nnc21 [MR118] | the chloroacetamides MR112 and MR118 demonstrated a slight improvement in potency | 
C=CS(=O)(=O)Nc1ccc(C2=N[C@@H]([C@@H](CC)C(=O)OC)c3nnc(C)n3-c3sc(C)c(C)c32)cc1 [MR121] | vinyl sulfonamide (MR121) and acrylamide (MR116) performed as the best combinations, providing the highest percentage of covalent engagement | 
CC[C@@H](C(=O)OC)[C@@H]1N=C(c2ccc(NC(=O)CCl)cc2)c2c(sc(C)c2C)-n2c(C)nnc21 [MR112] | para chloroacetamide (MR112), vinyl sulfonamide (MR121) and acrylamide (MR116) performed as the best combinations | 

From PMC13376172, “BromoCatch: a self-labelling tag platform for protein modification and live cell imaging” (Nature Communications, 2026)
